Experimental data reported in patent US20110160216A1, “Thymidylate Synthase Haplotype is Associated with Tumor Recurrence in Stage II and Stage III Colon Cancer Patients” (UNIVERSITY OF SOUTHEM CALIFORNIA, priority 2008, published 2011).
Marks after values point to notes of the source that are not given here.

Test system: locally advanced (Stage II/III) colon cancer
Experiment: Retrospective study of time to tumor recurrence (TTR) after 5-FU-based adjuvant chemotherapy, by regimen and by TS/MTHFR genotype
Assay type: in vivo, human
Description: One hundred and ninety-seven (n=197) with locally advanced colon cancer who were treated with 5-FU-based adjuvant chemotherapy [bolus 5-FU: n=30, (15%); infusimal 5-FU: […], (85%)] either at the University of Southern California/Norris Comprehensive Cancer Center (USC/NCCC) or at the Los Angeles County/University of Southern California Medical Center (LAC/USCMC), between 1987 and 2007, were eligible for the present study. This study was conducted at the USC/NCCC and approved by the Institutional Review Board of the University of Southern California for Medical Sciences. Patient data were collected retrospectively through chart review. Informed consent was signed by all patients involved in the study.
Whole blood was collected and genomic DNA was extracted using the QIAamp kit (Qiagen, CA, USA). Samples were tested using polymerase chain reaction restriction fragment length polymorphism (PCR-RFLP) technique. Briefly, forward and reverse primers were used for PCR amplification (see Table 7), PCR products were digested by restriction enzymes (New England Biolab, Massachusetts, USA) and alleles were separated using a 4% NuSieve ethidium bromide stained agarose gel. TS and MTHFR polymorphisms were tested by PCR, followed by allele-specific restriction enzyme digestion method, as previously described (Mandola, M. V. et al. (2003) Cancer Res 63:2898-904; Mandola, M. V. et al. (2004) Pharmacogenetics 14:319-27; Markan, S. et al. (2007) Mol Cell Biochem 302:125-31; Stern, L. L. et al. (2000) Cancer Epidemiol Biomarkers Prev 9:849-53).
The primary endpoint in this study was time to tumor recurrence (TTR) in Stage II/III colon cancer patients, which was defined as the time from the date of diagnosis of Stage II/III colon cancer to the date of first recurrence, […], or until last contact if the patient was free of any tumor recurrence at the time of last contact. If a patient had not recurred, then TTR was censored at the time of death or at the last follow-up. The associations of time to tumor recurrence with patient's clinico-pathologic characteristics (age, sex, race, Stage, tumor grade, T-stage, N-stage and type of adjuvant chemotherapy) were assessed using univariate survival analyses (log-rank test).
Polymorphisms of TS and MTHFR were coded as categorical variables according to their genotypes. The associations between TS and MTHFR polymorphisms and time to recurrence were examined using Kaplan-Meier curves and log-rank test. The distributions of polymorphisms across demographic characteristics were examined using Fisher's exact test. In the univariate survival analysis, the Pike estimate of relative risk (RR) and its associated 95% confidence interval (95% CI) was based on the log-rank test.

[1] = patients receiving 5-FU only, MTHFR A + 1298C A/A
[2] = patients receiving 5-FU only, MTHFR A + 1298C A/C
[3] = patients receiving 5-FU only, MTHFR A + 1298C C/C
[4] = patients receiving 5-FU only, MTHFR C + 677T C/C
[5] = patients receiving 5-FU only, MTHFR C + 677T C/T
[6] = patients receiving 5-FU only, MTHFR C + 677T T/T
[7] = patients receiving 5-FU only, TS-3′UTR +6b/−6bp
[8] = patients receiving 5-FU only, TS-3′UTR +6bp/+6bP
[9] = patients receiving 5-FU only, TS-3′UTR −6bp/−6bp
[10] = patients receiving 5-FU only, TS-5′UTR 2R/2R
[11] = patients receiving 5-FU only, TS-5′UTR 2R/3R
[12] = patients receiving 5-FU only, TS-5′UTR 3R/36
[13] = patients receiving 5-FU only, TS-5′UTR/GC 2R/2R
[14] = patients receiving 5-FU only, TS-5′UTR/GC 2R/3(G)
[15] = patients receiving 5-FU only, TS-5′UTR/GC 2R/3R(C)
[16] = patients receiving 5-FU only, TS-5′UTR/GC 3R(C)/3R(C)
[17] = patients receiving 5-FU only, TS-5′UTR/GC 3R(G)/3R(C)
[18] = patients receiving 5-FU only, TS-5′UTR/GC 3R(G)/3R(G)

O=c1[nH]cc(F)c(=O)[nH]1 [5-FU, 5-Fluorouracil]
Median time to recurrence (TTR) years (95% CI) (all patients grouped by adjuvant therapy): 6.6 years
Probablility ± SE of 3-year recurrence (all patients grouped by adjuvant therapy, Greenwood SE): 0.35 ± 0.04
Median time to recurrence (TTR) years (95% CI) [1]: > 16.8^b years
Probability ± SE of 3-year recurrence [1]: 0.31 ± 0.06
Median time to recurrence (TTR) years (95% CI) [2]: 5.9 years
Probability ± SE of 3-year recurrence [2]: 0.35 ± 0.08
Relative risk (patients receiving 5-FU only, MTHFR A + 1298C A/C vs A/A (Reference)): 1.33
Median time to recurrence (TTR) years (95% CI) [3]: 6.6 years
Probability ± SE of 3-year recurrence [3]: 0.40 ± 0.22
Relative risk (patients receiving 5-FU only, MTHFR A + 1298C C/C vs A/A (Reference)): 1.50
Median time to recurrence (TTR) years (95% CI) [4]: 6.6 years
Probability ± SE of 3-year recurrence [4]: 0.26 ± 0.07
Median time to recurrence (TTR) years (95% CI) [5]: 5.4 years
Probability ± SE of 3-year recurrence [5]: 0.41 ± 0.07
Relative risk (patients receiving 5-FU only, MTHFR C + 677T C/T vs C/C (Reference)): 1.30
Median time to recurrence (TTR) years (95% CI) [6]: > 7.4^b years
Probability ± SE of 3-year recurrence [6]: 0.21 ± 0.09
Relative risk (patients receiving 5-FU only, MTHFR C + 677T T/T vs C/C (Reference)): 0.55
Median time to recurrence (TTR) years (95% CI) [7]: 5.7 years
Probability ± SE of 3-year recurrence [7]: 0.34 ± 0.07
Relative risk (patients receiving 5-FU only, TS-3′UTR +6b/−6bp vs +6bp/+6bP (Reference)): 1.33
Median time to recurrence (TTR) years (95% CI) [8]: > 16.8^b years
Probability ± SE of 3-year recurrence [8]: 0.28 ± 0.06
Median time to recurrence (TTR) years (95% CI) [9]: > 7.7^b years
Probability ± SE of 3-year recurrence [9]: 0.43 ± 0.12
Relative risk (patients receiving 5-FU only, TS-3′UTR −6bp/−6bp vs +6bp/+6bP (Reference)): 1.36
Median time to recurrence (TTR) years (95% CI) [10]: > 16.8^b years
Probability ± SE of 3-year recurrence [10]: 0.20 ± 0.08
Median time to recurrence (TTR) years (95% CI) [11]: 4.8 years
Probability ± SE of 3-year recurrence [11]: 0.42 ± 0.07
Relative risk (patients receiving 5-FU only, TS-5′UTR 2R/3R vs 2R/2R (Reference)): 1.94
Median time to recurrence (TTR) years (95% CI) [12]: 6.6 years
Probability ± SE of 3-year recurrence [12]: 0.29 ± 0.08
Relative risk (patients receiving 5-FU only, TS-5′UTR 3R/36 vs 2R/2R (Reference)): 1.43
Median time to recurrence (TTR) years (95% CI) [13]: > 16.8^b years
Probability ± SE of 3-year recurrence [13]: 0.20 ± 0.08
Median time to recurrence (TTR) years (95% CI) [14]: 4.8 years
Probability ± SE of 3-year recurrence [14]: 0.44 ± 0.10
Relative risk (patients receiving 5-FU only, TS-5′UTR/GC 2R/3(G) vs 2R/2R (Reference)): 1.81
Median time to recurrence (TTR) years (95% CI) [15]: 5.9 years
Probability ± SE of 3-year recurrence [15]: 0.38 ± 0.10
Relative risk (patients receiving 5-FU only, TS-5′UTR/GC 2R/3R(C) vs 2R/2R (Reference)): 1.79
Median time to recurrence (TTR) years (95% CI) [16]: > 13.3^b years
Probability ± SE of 3-year recurrence [16]: 0.17 ± 0.11
Relative risk (patients receiving 5-FU only, TS-5′UTR/GC 3R(C)/3R(C) vs 2R/2R (Reference)): 0.46
Median time to recurrence (TTR) years (95% CI) [17]: 5.7 years
Probability ± SE of 3-year recurrence [17]: 0.24 ± 0.12
Relative risk (patients receiving 5-FU only, TS-5′UTR/GC 3R(G)/3R(C) vs 2R/2R (Reference)): 1.44
Median time to recurrence (TTR) years (95% CI) [18]: 1.4 years
Probability ± SE of 3-year recurrence [18]: 0.61 ± 0.17
Relative risk (patients receiving 5-FU only, TS-5′UTR/GC 3R(G)/3R(G) vs 2R/2R (Reference)): 4.74
